{
  "source": "patent US20160271258A1",
  "about": "“Dual Peptide-Mediated Targeted Delivery System” (MUSC FOUNDATION FOR RESEARCH DEVELOPMENT, priority 2015, published 2016)",
  "key": {"[1]": {"tested_on": "CAL 27 (high EGFR) and SCC-15 (low EGFR) oral cancer cells", "test": "Fluorescence microscopy of DY547-siCIP2A uptake in co-culture of high- and low-EGFR oral cancer cells", "type": "cell-based, human", "details": "co-culture CAL 27 and SCC-15, 4 hours, 100 nM D-siCIP2A", "procedure": "(§1) Fluorescence microscopy analysis was performed after co-culture of CAL 27 (high EGFR) and SCC-15 (low EGFR) oral cancer cells incubated for 4 hours with 100 nM of DY547-conjugated siRNA targeting CIP2A (D-siCIP2A; red) in complex with GE11R9 peptide at 100:1 and 60:1 (GE11R9:siRNA) molar ratios. SCC-15 cells were stained for vimentin (green) and nuclei (blue) were counterstained with DAPI.\nas §1, with “of the” for “was performed after”, “and 599 peptides” for “peptide”, “various” for “100:1 and 60:1 (GE11R9:siRNA)”, “ratios (FIGS. 3A & 3B).” for “ratios.”, “DAPI” for “DAPI.”"}, "CIP2A": {"tested_on": "CIP2A", "test": "Western blot analysis of CIP2A protein expression levels in CAL 27 OSCC cells", "type": "cell-based, human", "details": "CAL 27 cells, 48 hours post-treatment, 100 nM siCIP2A vs siNT", "procedure": "Western blot analysis of CIP2A protein expression levels in CAL 27 OSCC cells was performed 48 hours post-treatment with GE11R9 peptide complexed to either 100 nM of siNT or siCIP2A at a 60:1 or 100:1 peptide-to-siRNA molar ratio compared to 599 peptide at a 50:1 molar ratio. β-Actin protein levels were monitored to ensure equal loading of samples.\nFIG. 4 is a Western blot analysis of CIP2A protein expression levels in CAL 27 OSCC cells performed 48 hours post-treatment with dual peptide complexed to either 100 nM of siNT or siCIP2A at various GE11R9:599:siRNA molar ratios. β-Actin protein levels were monitored to ensure equal loading of samples."}},
  "note": "Entries after “also recorded” stand apart in the source; their conditions may differ. Where no end group is shown, it is not given here. [ ]: non-standard residue; d: D form.",
  "data": [
    {"substance": "GE11R9: EGFR-targeting peptide: GE11 sequence modified with a nona(D-arginine) stretch (R9) and a C-terminal Lysine (YHWYGYTPQNVIGGGG[dR][dR][dR][dR][dR][dR][dR][dR][dR]K)", "values": [
      {"measurement": "targeting / specific uptake of siRNA into high-EGFR versus low-EGFR cells", "setting": "[1]", "value": "deliver siRNAs specifically to EGFR-overexpressing oral cancer cells; also recorded: specifically targets"},
      {"measurement": "delivery of bioactive siRNA (siCIP2A functionality, CIP2A protein expression)", "setting": "CIP2A", "value": "not capable of mediating the delivery of bioactive siRNAs; also recorded: does not deliver bioactive siRNAs; also recorded: not able to mediate the delivery of bioactive siRNAs"}
    ]}
  ]
}
